# Experimental data published in patent publication US20260007684A1, “AMIDE DERIVATIVES FOR INHIBITING NLRP3 AND USES THEREOF” (Ventus Therapeutics U.S., Inc., priority 2023, published 2026).
# Molecular target: human NLRP3 (Homo sapiens (Human), UniProt Q96P20)
# Experiment: Scintillation Proximity (SPA) NLRP3 Assay: displacement of 3H-MCC950
# Format: binding
# Conditions: SPA IC50, displacement of 3H-MCC950
# Chain of human NLRP3 (Q96P20 whole entry): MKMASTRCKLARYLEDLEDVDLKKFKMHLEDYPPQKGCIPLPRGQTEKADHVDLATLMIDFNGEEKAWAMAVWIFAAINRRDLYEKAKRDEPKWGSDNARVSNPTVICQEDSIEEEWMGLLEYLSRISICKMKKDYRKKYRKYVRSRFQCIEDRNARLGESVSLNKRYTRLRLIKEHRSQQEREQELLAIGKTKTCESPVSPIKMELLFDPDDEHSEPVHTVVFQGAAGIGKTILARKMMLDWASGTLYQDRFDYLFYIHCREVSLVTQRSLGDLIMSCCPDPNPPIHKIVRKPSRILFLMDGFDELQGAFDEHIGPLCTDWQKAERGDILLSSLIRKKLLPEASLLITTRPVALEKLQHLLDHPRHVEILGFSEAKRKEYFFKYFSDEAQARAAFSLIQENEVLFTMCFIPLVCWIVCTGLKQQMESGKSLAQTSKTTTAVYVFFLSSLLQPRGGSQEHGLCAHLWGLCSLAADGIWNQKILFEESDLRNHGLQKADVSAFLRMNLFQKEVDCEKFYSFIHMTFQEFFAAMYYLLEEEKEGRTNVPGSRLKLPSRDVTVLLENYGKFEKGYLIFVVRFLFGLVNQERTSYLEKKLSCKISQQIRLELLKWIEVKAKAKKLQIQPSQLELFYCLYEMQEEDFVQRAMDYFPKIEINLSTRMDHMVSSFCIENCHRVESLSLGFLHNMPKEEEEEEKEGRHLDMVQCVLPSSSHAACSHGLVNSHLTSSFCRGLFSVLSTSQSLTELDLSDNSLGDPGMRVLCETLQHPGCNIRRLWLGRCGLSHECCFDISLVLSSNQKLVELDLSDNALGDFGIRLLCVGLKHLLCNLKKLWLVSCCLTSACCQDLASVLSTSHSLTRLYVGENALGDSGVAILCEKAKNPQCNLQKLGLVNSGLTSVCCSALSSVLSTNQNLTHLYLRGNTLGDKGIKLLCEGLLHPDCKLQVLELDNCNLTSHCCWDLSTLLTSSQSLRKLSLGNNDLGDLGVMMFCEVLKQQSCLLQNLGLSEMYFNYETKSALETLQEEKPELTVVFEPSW
row,Compound,IC50
1,"O=C(N[C@@H]1CCC[C@H]2CC[C@@H]1N2c1nnn[nH]1)C1(c2ccc(C(F)(F)F)cc2O)CC1 [88C*, N-((1S,2R,6S)-9-(1H-tetrazol-5-yl)-9-azabicyclo[4.2.1]nonan-2-yl)-1-(2-hydroxy-4-(trifluoromethyl)phenyl)cyclopropane-1-carboxamide]",50 to 100 µM
2,"O=C(N[C@H]1CCC[C@H]2CC[C@@H]1N2c1nnn[nH]1)C1(c2ccc(Cl)cc2)CC1 (single isomer, unassigned) [9D*, N-(9-(1H-tetrazol-5-yl)-9-azabicyclo[4.2.1]nonan-2-yl)-1-(4-chlorophenyl)cyclopropane-1-carboxamide]",10 to 50 µM
3,"C[C@@H]1C[C@@H]2CC[C@H]([C@@H](NC(=O)C3(c4ccc(C(F)(F)F)cc4)CC3)C1)N2c1nnn[nH]1 [104F*, N-((1R,2S,4S,6S)-4-methyl-9-(1H-tetrazol-5-yl)-9-azabicyclo[4.2.1]nonan-2-yl)-1-(4-(trifluoromethyl)phenyl)cyclopropane-1-carboxamide]",10 to 50 µM
4,"O=C(N[C@@H]1CCC[C@@H]2CC[C@H]1N2c1nnn[nH]1)C1(c2ccc(Cl)cc2)CC1 (single isomer, unassigned) [9A*, N-(9-(1H-tetrazol-5-yl)-9-azabicyclo[4.2.1]nonan-2-yl)-1-(4-chlorophenyl)cyclopropane-1-carboxamide]",1 to 10 µM

# Same assay, conditions: displacement of 3H-MCC950; read-out: SPA IC50
row,Compound,IC50
1,"C[C@@H]1CCN(c2nnn[nH]2)C[C@@H](NC(=O)C2(c3ccc(C4CCC4)cc3)CC2)C1 (single isomer, unassigned) [8B*, 1-(4-cyclobutylphenyl)-N-(5-methyl-1-(1H-tetrazol-5-yl)azepan-3-yl)cyclopropane-1-carboxamide]",10 to 50 µM
2,"O=C(N[C@H]1CC[C@@H]2CC[C@H]1N2c1nnn[nH]1)C1(c2ccc(Cl)cc2O)CC1 [75B*, N-((1R,2S,5R)-8-(1H-tetrazol-5-yl)-8-azabicyclo[3.2.1]octan-2-yl)-1-(4-chloro-2-hydroxyphenyl)cyclopropane-1-carboxamide]",1 to 10 µM
3,"O=C(N[C@H]1C[C@@H](C(F)(F)F)[C@@H]2CC[C@H]1N2c1nnn[nH]1)C1(c2ccc(Cl)cc2)CC1 (single isomer, unassigned) [103B*]",> 100 µM
4,"C[C@@H]1C[C@H](NC(=O)C2(c3ccc(SC(F)F)cc3)CC2)[C@H]2CC[C@@H]1N2c1nnn[nH]1 [85B*, 1-(4-((difluoromethyl)thio)phenyl)-N-((1R,2S,4R,5S)-4-methyl-8-(1H-tetrazol-5-yl)-8-azabicyclo[3.2.1]octan-2-yl)cyclopropane-1-carboxamide]",10 to 50 µM
5,"CC(C)c1ccc(C2(C(=O)N[C@H]3C[C@@H](C)CCN(c4nnn[nH]4)C3)CC2)c(O)c1 (single isomer, unassigned) [27D*, 1-(2-hydroxy-4-isopropylphenyl)-N-(5-methyl-1-(1H-tetrazol-5-yl)azepan-3-yl)cyclopropane-1-carboxamide]",1 to 10 µM
6,"C[C@H]1C[C@@H](NC(=O)C2(c3ccc(C4CC4)cc3)CC2)[C@@H]2CC[C@H]1N2c1nnn[nH]1 [81C*, 1-(4-cyclopropylphenyl)-N-((1S,2R,4S,5R)-4-methyl-8-(1H-tetrazol-5-yl)-8-azabicyclo[3.2.1]octan-2-yl)cyclopropane-1-carboxamide]",50 to 100 µM
7,"Cc1c(Cl)ccc(C2(C(=O)N[C@@H]3C[C@@H](C)CCN(c4nnn[nH]4)C3)CC2)c1O (single isomer, unassigned) [21C*, 1-(4-chloro-2-hydroxy-3-methylphenyl)-N-(5-methyl-1-(1H-tetrazol-5-yl)azepan-3-yl)cyclopropane-1-carboxamide]",> 100 µM
8,"C[C@H]1C[C@@H](NC(=O)C2(c3ccc(OC(F)F)cc3F)CC2)[C@@H]2CC[C@H]1N2c1nnn[nH]1 (stereo in doubt) [101C*, 1-(4-(difluoromethoxy)-2-fluorophenyl)-N-(4-methyl-8-(1H-tetrazol-5-yl)-8-azabicyclo[3.2.1]octan-2-yl)cyclopropane-1-carboxamide]",> 100 µM
9,"C[C@H]1CCN(c2nnn[nH]2)C[C@H](NC(=O)C2(c3ccc(Cl)cc3)CC2)C1 (single isomer, unassigned) [12C*, 1-(4-chlorophenyl)-N-(5-methyl-1-(1H-tetrazol-5-yl)azepan-3-yl)cyclopropane-1-carboxamide]",> 100 µM
10,"C[C@@H]1CCN(c2nnn[nH]2)C[C@@H](NC(=O)C2(c3ccc(C4CC4)cc3)CC2)C1 (single isomer, unassigned) [2B*]",1 to 10 µM
11,"Cc1ccc(C2(C(=O)N[C@H]3C[C@@H](C)[C@@H]4CC[C@H]3N4c3nnn[nH]3)CC2)cc1 [87B*, N-((1R,2S,4R,5S)-4-methy1-8-(1H-tetrazol-5-yl)-8-azabicyclo[3.2.1]octan-2-yl)-1-(p-tolyl)cyclopropane-1-carboxamide]",10 to 50 µM
12,"C[C@H]1CCN(c2nnn[nH]2)C[C@H](NC(=O)C2(c3ccc(C(F)F)cc3O)CC2)C1 (single isomer, unassigned) [30C*, 1-(4-(difluoromethyl)-2-hydroxyphenyl)-N-(5-methyl-1-(1H-tetrazol-5-yl)azepan-3-yl)cyclopropane-1-carboxamide]",> 100 µM
13,"C[C@H]1CCN(c2nnn[nH]2)C[C@H](NC(=O)C2(c3ccc(C4CC4)c(F)c3O)CC2)C1 (single isomer, unassigned) [32C*, 1-(4-cyclopropyl-3-fluoro-2-hydroxyphenyl)-N-(5-methyl-1-(1H-tetrazol-5-yl)azepan-3-yl)cyclopropane-1-carboxamide]",50 to 100 µM

# Next, values leading:
row,IC50,Compound
1,1 to 10 µM,"C[C@H]1CCN(c2nnn[nH]2)C[C@@H](NC(=O)C2(c3ccc(OC(F)(F)F)cc3F)CC2)C1 (single isomer, unassigned) [64D*]"
2,10 to 50 µM,"C[C@H]1CCN(c2nnn[nH]2)C[C@@H](NC(=O)C2(c3ccc(SC(F)(F)F)cc3)CC2)C1 (single isomer, unassigned) [69D*]"
3,10 to 50 µM,"O=C(N[C@H]1CN(c2nnn[nH]2)CC[C@H]1F)C1(c2ccc(Cl)cc2)CC1 [Compound 50A, 1-(4-chlorophenyl)-N-[(3S,4R)-4-fluoro-1-(1H-tetrazol-5-yl)-3-piperidyl]cyclopropanecarboxamide]"
4,1 to 10 µM,"C[C@H]1CCN(c2nnn[nH]2)C[C@@H](NC(=O)C2(c3ccc(C(F)(F)F)cc3F)CC2)C1 (single isomer, unassigned) [68D*]"
5,1 to 10 µM,"C[C@@H]1CC[C@H](NC(=O)C2(c3ccc(C4CC4)cc3O)CC2)CN(c2nnn[nH]2)C1 (single isomer, unassigned) [91D*]"
6,> 100 µM,"O=C(N[C@H]1CCCN(c2nnn[nH]2)C1)C1(c2ccc(Cl)cc2)CC1 [Compound 10B, (S)—N-(1-(1H-tetrazol-5-yl)piperidin-3-yl)-1-(4-chlorophenyl)cyclopropane-1-carboxamide]"
7,50 to 100 µM,"C[C@H]1CCN(c2nnn[nH]2)C[C@@H](NC(=O)C2(c3ccc(Cl)cc3Cl)CC2)C1 (single isomer, unassigned) [55D*]"
8,10 to 50 µM,"O=C(N[C@@H]1C[C@@H](F)CN(c2nnn[nH]2)C1)C1(c2ccc(Cl)cc2)CC1 [Compound 44C, 1-(4-chlorophenyl)-N-[(3R,5R)-5-fluoro-1-(1H-tetrazol-5-yl)-3-piperidyl]cyclopropanecarboxamide]"
9,1 to 10 µM,"C[C@H]1C[C@@H](NC(=O)C2(c3cnc(C(F)(F)F)cc3O)CC2)CN(c2nnn[nH]2)C1 [Compound 26A, 1-(4-hydroxy-6-(trifluoromethyl)pyridin-3-yl)-N-((3R,5S)-5-methyl-1-(1H-tetrazol-5-yl)piperidin-3-yl)cyclopropane-1-carboxamide]"
